Results as given in PubChem BioAssay AID1963977 (Molecular Pharmacology Branch, DTP, NCI, 2024).

Test system: 624824-186-R-J3-PDC multicell spheroids, viability
Assay: Anticancer human tumor 624824-186-R-J3-PDC patient-derived colon adenocarcinoma cell line growth inhibition [PI3K]
Conditions: for IC50: curve of first compound; for viability, T/C: stronger effect = lower value
Text: Combinatorial screen of targeted agents with the PI3K inhibitors inavolisib, alpelisib, duvelisib, and copanlisib in multi-cell type tumor spheroids
A high-throughput screen of multi-cell type tumor spheroids was designed to identify active combinations of targeted small molecules and PI3K pathway inhibitors. Complex spheroids include a stromal component modeled by human endothelial cells (HUVEC) and fibroblasts modeled by human mesenchymal stem cells (MSCs). The concentration ranges selected for each drug and investigational agent were based upon clinically achievable concentrations if the clinical Cmax of the agent was known.
Compounds. The drugs and investigational agents: inavolisib (NSC800729), alpelisib (NSC765974), duvelisib (NSC772469), copanlisib (NSC816437), ipatasertib (NSC767898), afuresertib (NSC778305), talazoparib (NSC767125), sapanisertib (NSC764658), selumetinib (NSC741078), tovorafenib (DAY101, NSC766906), vemurafenib (NSC761431), ravoxertinib (NSC781343), sotorasib (NSC818433), MRTX1133 (NSC 836407), abemaciclib (NSC 768073), palbociclib (NSC758247), venetoclax (NSC 766270), SY5609 (NSC837396), enzalutamide (NSC755605), and darolutamide (NSC825331), were obtained from the National Cancer Institute (NCI) Developmental Therapeutics Program Chemical Repository. The FDA-approved anticancer drug set is available from the NCI Developmental Therapeutics Program. […] The stock solutions were prepared in dimethyl sulfoxide (DMSO, Sigma-Aldrich, St. Louis, MO, cat. D2650) at 800-fold the tested concentration and stored at -70 degrees C prior to their use. All drugs and investigational agents were tested over a range starting from a high concentration at or near the clinical Cmax and decreasing in half-log increments. If the clinical Cmax for an agent had not been determined, the highest concentration tested was 10 microM.
Cell Culture. All cells were maintained in an incubator at 37 degrees C and 5% CO2 with 95% humidity. The PDC lines were cultured according to standard operating procedures established by the NCI PDMR (https://pdmr.cancer.gov/sops/default.htm). All PDCs were thawed and cultured in Matrigel-coated flasks prepared with a working solution of 1X Ham's F-12 nutrient mix, without supplementation (Invitrogen, Waltham, MA, cat. 11765054), 100 U/mL penicillin-streptomycin (Invitrogen, cat. 15140122), and 2.5% Matrigel (Corning Inc., Corning, NY, cat. 354248) for the first three passages. The 354836-022-R-J1-PDC, 475296-252-R-J1-PDC, and 997726-040-R-J2-PDC lines were cultured in 6A media, which includes advanced DMEM/F-12 (Thermo Fisher Scientific, cat. 12634028), 10 mM HEPES (Thermo Fisher Scientific, cat. 15630080), 1X GlutaMAX supplement (Thermo Fisher Scientific, cat. 35050061), 0.1 mg/mL primocin (InvivoGen, San Diego, CA, cat. ant-pm-2), 10% defined fetal bovine serum, heat inactivated (HyClone Laboratories Inc., Logan, UT, cat. SH30070.03HI), 50% L-WRN conditioned media (ATCC, cat. CRL-3276), 1.25 mM N-Acetyl-L-cysteine (Sigma-Aldrich, cat. A9165), 10 mM nicotinamide (Sigma-Aldrich, cat. N0636), 1X B-27 supplement (Thermo Fisher Scientific, cat. 17504044), 1X N-2 supplement (Thermo Fisher Scientific, cat. 17502048), and 10 microM Y-27632 dihydrochloride (Tocris Bioscience, Bristol, United Kingdom, cat. 1254). The 624824-186-R-J2-PDC line was cultured in 6C/Colon 1B media, which includes all 6A media components plus 50 ng/mL human EGF recombinant protein (Thermo Fisher Scientific, cat. PHG0311). […]
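Also: spheroids exposed to agents for seven days before luminescence read.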
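For viability, T/C in this document: luminescent signal used as a stand-in for spheroid viability; percent viability relative to DMSO vehicle control wells taken as 100%.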

For `C[C@@H](NC(=O)c1ncnc(N)c1Cl)c1ncc(C(=O)Nc2cc(C(F)(F)F)c(Cl)cn2)s1` + COc1c(OCCCN2CCOCC2)ccc2c3n(c(=NC(=O)c4cnc(N)nc4)nc12)CCN3, the IC50 (second compound 0.00316 µM) was greater than 10 µM, the IC50 (second compound 0.01 µM) was greater than 10 µM and the IC50 (second compound 0.0316 µM) was greater than 10 µM. For the same compound, the IC50 (second compound 0.1 µM) was 4.44 µM, the IC50 (second compound 0.316 µM) was 0.538 µM and the IC50 (second compound 1 µM) was less than 0.0316 µM. For the same compound, the viability, T/C (second compound 0.00316 µM, first compound 0.0316 µM) was 108%, the viability, T/C (second compound 0.00316 µM, first compound 0.1 µM) was 114% and the viability, T/C (second compound 0.00316 µM, first compound 0.316 µM) was 109%. It also gave a viability, T/C (second compound 0.00316 µM, first compound 1 µM) of 103%, a viability, T/C (second compound 0.00316 µM, first compound 3.16 µM) of 99% and a viability, T/C (second compound 0.00316 µM, first compound 10 µM) of 85.8%. It also gave a viability, T/C (second compound 0.01 µM, first compound 0.0316 µM) of 107%, a viability, T/C (second compound 0.01 µM, first compound 0.1 µM) of 97.9% and a viability, T/C (second compound 0.01 µM, first compound 0.316 µM) of 95.6%. It also gave a viability, T/C (second compound 0.01 µM, first compound 1 µM) of 96.2%, a viability, T/C (second compound 0.01 µM, first compound 3.16 µM) of 92.5% and a viability, T/C (second compound 0.01 µM, first compound 10 µM) of 80.2%. For the same compound, the viability, T/C (second compound 0.0316 µM, first compound 0.0316 µM) was 91.3%, the viability, T/C (second compound 0.0316 µM, first compound 0.1 µM) was 103% and the viability, T/C (second compound 0.0316 µM, first compound 0.316 µM) was 91.5%. It also gave a viability, T/C (second compound 0.0316 µM, first compound 1 µM) of 99.1%, a viability, T/C (second compound 0.0316 µM, first compound 3.16 µM) of 76.8% and a viability, T/C (second compound 0.0316 µM, first compound 10 µM) of 52.1%. It also gave a viability, T/C (second compound 0.1 µM, first compound 0.0316 µM) of 88.2%, a viability, T/C (second compound 0.1 µM, first compound 0.1 µM) of 82.1% and a viability, T/C (second compound 0.1 µM, first compound 0.316 µM) of 78.3%. The viability, T/C (second compound 0.1 µM, first compound 1 µM) was 76.9%, the viability, T/C (second compound 0.1 µM, first compound 3.16 µM) was 54.1% and the viability, T/C (second compound 0.1 µM, first compound 10 µM) was 38.5%. It also gave a viability, T/C (second compound 0.316 µM, first compound 0.0316 µM) of 54.4%, a viability, T/C (second compound 0.316 µM, first compound 0.1 µM) of 60.6% and a viability, T/C (second compound 0.316 µM, first compound 0.316 µM) of 59.2%. The viability, T/C (second compound 0.316 µM, first compound 1 µM) was 41%, the viability, T/C (second compound 0.316 µM, first compound 3.16 µM) was 28.5% and the viability, T/C (second compound 0.316 µM, first compound 10 µM) was 23.1%. It also gave a viability, T/C (second compound 1 µM, first compound 0.0316 µM) of 32.9%, a viability, T/C (second compound 1 µM, first compound 0.1 µM) of 31.5% and a viability, T/C (second compound 1 µM, first compound 0.316 µM) of 31%. The viability, T/C (second compound 1 µM, first compound 1 µM) was 25%, the viability, T/C (second compound 1 µM, first compound 3.16 µM) was 20.3% and the viability, T/C (second compound 1 µM, first compound 10 µM) was 14.8%.
